According to ChEMBL document CHEMBL1135093, “Phthalazine PDE4 inhibitors. Part 3: the synthesis and in vitro evaluation of derivatives with a hydrogen bond acceptor” (Bioorg Med Chem Lett, 2002):

Legend:
Assay type in all cases: protein assay
Phosphodiesterase 4 [1] = target: T1, Phosphodiesterase 4 (Homo sapiens, UniProt P27815+Q08499+Q07343+Q08493); assay: Inhibition of human neutrophil phosphodiesterase type IV (PDE4)
Phosphodiesterase 4 [2] = target: T1, Phosphodiesterase 4; assay: Affinity for rolipram binding site (RBS) of human neutrophil phosphodiesterase type IV (PDE4)
Phosphodiesterase 4 [3] = target: T1, Phosphodiesterase 4; assay: Selectivity for rolipram binding site over phosphodiesterase 4
Phosphodiesterase 4 [4] = target: T1, Phosphodiesterase 4; assay: Inhibition of human phosphodiesterase type IV (PDE4) at 10e-7 M
Phosphodiesterase 4 [5] = target: T1, Phosphodiesterase 4; assay: Inhibition of rolipram binding to phosphodiesterase type IV (PDE4) at 10e-6 M
Phosphodiesterase 4 [6] = target: T1, Phosphodiesterase 4; assay: Inhibition of rolipram binding to phosphodiesterase type IV (PDE4) at 10e-7 M
Phosphodiesterase 4 [7] = target: T1, Phosphodiesterase 4; assay: Inhibition of rolipram binding to phosphodiesterase type IV (PDE4)

| IC50 (Phosphodiesterase 4 [1]) [nM] | Ki (Phosphodiesterase 4 [2]) [nM] | Ratio (Phosphodiesterase 4 [3]) | inhibition (Phosphodiesterase 4 [4]) [%] | Binding (Phosphodiesterase 4 [5]) [%] | Binding (Phosphodiesterase 4 [6]) [%] | Binding (Phosphodiesterase 4 [7]) [%] | SMILES |
| --- | --- | --- | --- | --- | --- | --- | --- |
| – | – | 2.8 | – | – | – | – | COc1ccc2c(Cc3c(Cl)cncc3Cl)nncc2c1OC1CCCC1 |
| 36 | 63 | 1.7 | – | – | – | – | COc1ccc2c(c1)CN(C(N)=O)N=C2Cc1c(Cl)cncc1Cl |
| – | – | – | 14 | 13 | – | – | COc1ccc2c(c1)CNN=C2Cc1c(Cl)cncc1Cl |
| – | – | – | 0 | – | – | 42 | COc1ccc2c(Cc3c(Cl)cncc3Cl)nncc2c1 |
| 2 | 5 | 2.5 | – | – | – | – | COc1ccc2c(c1OC1CCCC1)CN(S(C)(=O)=O)N=C2Cc1c(Cl)cncc1Cl |
| 30 | 128 | 4.3 | – | – | – | – | COc1ccc2c(c1OC1CCCC1)CN(C(C)=O)N=C2Cc1c(Cl)cncc1Cl |

The next lines start with the compound.

| SMILES | IC50 (Phosphodiesterase 4 [1]) [nM] | Ki (Phosphodiesterase 4 [2]) [nM] | Ratio (Phosphodiesterase 4 [3]) | inhibition (Phosphodiesterase 4 [4]) [%] | Binding (Phosphodiesterase 4 [5]) [%] | Binding (Phosphodiesterase 4 [6]) [%] | Binding (Phosphodiesterase 4 [7]) [%] |
| --- | --- | --- | --- | --- | --- | --- | --- |
| COc1ccc2c(c1)CN(C(=O)NO)N=C2Cc1c(Cl)cncc1Cl | 85 | 208 | 2.4 | – | – | – | – |
| COc1ccc2c(c1)CN(C(=O)c1ccccc1)N=C2Cc1c(Cl)cncc1Cl | 30 | – | > 20 | – | – | 17 | – |
| COc1ccc2c(c1)CN(C(=O)N(C)C)N=C2Cc1c(Cl)cncc1Cl | – | 473 | – | 35 | – | – | – |
| COc1ccc2c(c1)CN(S(C)(=O)=O)N=C2Cc1c(Cl)cncc1Cl | 21 | 60 | 2.9 | – | – | – | – |
| COc1ccc2c(c1)CN(C=O)N=C2Cc1c(Cl)cncc1Cl | – | 138 | – | 45 | – | – | – |
| CNC(=O)N1Cc2cc(OC)ccc2C(Cc2c(Cl)cncc2Cl)=N1 | 131 | 235 | 1.8 | – | – | – | – |
| COc1ccc2c(c1)CN(C(=O)Cc1ccccc1)N=C2Cc1c(Cl)cncc1Cl | 12 | – | > 20 | – | – | 36 | – |
| CCC(=O)N1Cc2cc(OC)ccc2C(Cc2c(Cl)cncc2Cl)=N1 | 28 | 237 | 8.5 | – | – | – | – |
| COc1ccc2c(c1)CN(C(C)=O)N=C2Cc1c(Cl)cncc1Cl | 51 | 397 | 7.8 | – | – | – | – |
| COC(=O)N1Cc2cc(OC)ccc2C(Cc2c(Cl)cncc2Cl)=N1 | 72 | 199 | 2.8 | – | – | – | – |
| COc1ccc2c(c1)CN(C(=O)C(C)C)N=C2Cc1c(Cl)cncc1Cl | 25 | 498 | 19.9 | – | – | – | – |
| CCOC(=O)C(=O)N1Cc2cc(OC)ccc2C(Cc2c(Cl)cncc2Cl)=N1 | 113 | 212 | 1.9 | – | – | – | – |
